Source: patent publication US6288080A, “Magnesium quinolone antibiotics” (priority 1998, dated 2001)

Assays:
[1] = Aqueous solubility of the quinolone and its crystal forms; assay type: physicochemical; conditions: for solubility of crystal form: depending upon the crystal form
Description: The compounds disclosed in U.S. Pat. No. 5,563,155, ('155) are incorporated by reference here to fully disclose and enable this invention. The following compounds of the '155 patent are pointed out and particularly incorporated here. […] More particularly disclosed by incorporation by reference are those compounds of '155, in claim 1, where R2 is H and where R or R' is H. The quinolone where R2 is H and where R or R' is H can be combined with Mg2+ ions to produce a soluble complex having reduced injection site irritation. More preferred are the compounds of '155, in claim 1, where R2 is H and where R or R' is H, and where R3 is H and X is C--O--CH3. The esters of these compounds are also disclosed herein, the carboxy esters of 1-8 carbon groups are disclosed here, including all isomeric combinations (CH3, C2 H5, C3 H7, C4 H9, C5 H11, C6 H13, C7 H15, C8 H17 -- both straight and branched chains) and especially preferred are the carboxy esters of 1-4 carbon groups such as in U.S. Pat. No. 5,563,155, claim 1, where R2 is an alkyl of 1-4 carbon atoms or a cation. Even more preferred are the compounds of claim 2, most particularly the compound of claim 8 or 3R,1S-1-cyclopropyl-7-(3-(1-(methylamino)ethyl)-1-pyrrolidinyl)-6-fluoro-1,4-dihydro-8-methoxy-4-oxo-3-quinolinecarboxylic acid. […] Also, particular attention is directed to the descriptions in the specification of the '155 patent that correspond or are relevant to those claims and compounds described here.
The quinolones mentioned above can exist in different forms, the different forms having different solubilities. […] Even though it is the less soluble crystal form, Form III is very suitable as the quinolone that may be combined with Mg2+ in this invention. See, WO96/16055, incorporated by reference.
The compounds that may be made into solutions of this type are those compounds disclosed in Formula 1 and in U.S. Pat. No. 5,563,155, incorporated herein by reference and particularly 3R,1S-1-cyclopropyl-7-(3-(1-(methylamino)ethyl)-1-pyrrolidinyl)-6-fluoro-1,4-dihydro-8-methoxy-4-oxo-3-quinolinecarboxylic acid. […]

[2] = Total 14C-quinolone tissue residue depletion; assay type: in vivo, Holstein calves; conditions: for Total 14C-quinolone residues at injection site / Total 14C-quinolone residues in fat / Total 14C-quinolone residues in kidneys / Total 14C-quinolone residues in liver / Total 14C-quinolone residues in lungs / Total 14C-quinolone residues in muscle: 10 mg/kg
Method: (§1) Experiment 7. The determination of preliminary residue depletion profile in calves following subcutaneous administration of 14C-quinolone with and without magnesium.
(§2) Formulations: Radiolabeled quinolone was combined with unlabeled quinolone to yield solutions containing quinolone at 50 mg/mL with a specific activity of 2.25 uCi/mg. Solution 1: 4.92 g of unlabeled quinolone and 11.26 mCi 14C-quinolone were dissolved in 0.16 M HCl, the solution was titrated to pH 4-5 with 1 M NaOH and diluted with deionized water to a final volume of 100 mL. Solution 2: 4.92 g of unlabeled quinolone and 11.26 mCi 14C-quinolone were dissolved in 0.24 M MgCl2 --6H2 O and diluted to 100 mL with deionized water.
(§3) Treatment Groups: Ten (male and female) Holstein calves approximately 50-85 kg were used. Each animal was injected with a single subcutaneous injection (approximately 0.2 mL dose solution/kg body weight). The dose level was approximately 10 mg/kg (22.5 uCi/kg) body weight. Whole blood samples (approximately 50 mL) were collected from each animal at 0.5, 1, 1.5, 2, 2.5, 3, 6, 12, 24, and 48 h after dosing or until euthanasia. Following euthanasia, fat, muscle, lung, kidney, liver and injection site tissue samples (approximately 500 g) were collected. Blood and tissue samples were combusted and drug residue determined by liquid scintillation counting.

[3] = Serum depletion profile of 14C-quinolone with and without magnesium; assay type: in vivo, Holstein calves; conditions: single subcutaneous, approximately 10 mg/kg
Method: as §1, §2, §3

[4] = Injection site reaction after subcutaneous injection in animals (general statement); assay type: in vivo; conditions: without Mg2+
Description: Unfortunately these compounds also produce a severe adverse reaction at the injection site when injected subcutaneously in animals.

## CN[C@@H](C)[C@@H]1CCN(c2c(F)cc3c(=O)c(C(=O)O)cn(C4CC4)c3c2OC)C1 [Form 1, 3R,1S-1-cyclopropyl-7-(3-(1-(methylamino)ethyl)-1-pyrrolidinyl)-6-fluoro-1,4-dihydro-8-methoxy-4-oxo-3-quinolinecarboxylic acid]
[1]
  solubility of crystal form: about 10.8 mg/ml

## CN[C@@H](C)[C@@H]1CCN(c2c(F)cc3c(=O)c(C(=O)O)cn(C4CC4)c3c2OC)C1 [Form 3, 3R,1S-1-cyclopropyl-7-(3-(1-(methylamino)ethyl)-1-pyrrolidinyl)-6-fluoro-1,4-dihydro-8-methoxy-4-oxo-3-quinolinecarboxylic acid]
[1]
  solubility of crystal form: about 2.2 mg/ml

## CN[C@@H](C)[C@@H]1CCN(c2c(F)cc3c(=O)c(C(=O)O)cn(C4CC4)c3c2OC)C1 [QFB, [S-(R*,S*)]-1-Cyclopropyl-6-fluoro-1,4-dihydro-8-methoxy-7-[3-[1-(methylamino)ethyl]-1-pyrrolidinyl]-4-oxo-3-quinolinecarboxylic acid]
[1]; 25° C.
  estimated intrinsic solubility: about 2.2 mg/ml
[2]; 3 hr
  Total 14C-quinolone residues at injection site: 10,482 μg/g
  Total 14C-quinolone residues in fat: 45.4 µg/g
  Total 14C-quinolone residues in kidneys: 353.2 µg/g
  Total 14C-quinolone residues in liver: 215.5 µg/g
  Total 14C-quinolone residues in lungs: 146.8 µg/g
  Total 14C-quinolone residues in muscle: 50.1 µg/g
[2]; 6 hr
  Total 14C-quinolone residues at injection site: 12,382 μg/g
  Total 14C-quinolone residues in fat: 16.8 µg/g
  Total 14C-quinolone residues in kidneys: 234.1 µg/g
  Total 14C-quinolone residues in liver: 147.2 µg/g
  Total 14C-quinolone residues in lungs: 96.6 µg/g
  Total 14C-quinolone residues in muscle: 38.4 µg/g
[2]; 12 hr
  Total 14C-quinolone residues at injection site: 1,737 μg/g
  Total 14C-quinolone residues in fat: 7.8 µg/g
  Total 14C-quinolone residues in kidneys: 121.3 µg/g
  Total 14C-quinolone residues in liver: 110.9 µg/g
  Total 14C-quinolone residues in lungs: 53.1 µg/g
  Total 14C-quinolone residues in muscle: 24.3 µg/g
[2]; 24 hr
  Total 14C-quinolone residues at injection site: 932.5 µg/g
  Total 14C-quinolone residues in fat: 13.9 µg/g
  Total 14C-quinolone residues in kidneys: 90.3 µg/g
  Total 14C-quinolone residues in liver: 59.5 µg/g
  Total 14C-quinolone residues in lungs: 27.6 µg/g
  Total 14C-quinolone residues in muscle: 9.4 µg/g
[2]; 48 hr
  Total 14C-quinolone residues at injection site: 225.7 µg/g
  Total 14C-quinolone residues in fat: 1.7 µg/g
  Total 14C-quinolone residues in kidneys: 15.0 µg/g
  Total 14C-quinolone residues in liver: 13.4 µg/g
  Total 14C-quinolone residues in lungs: 4.8 µg/g
  Total 14C-quinolone residues in muscle: 1.4 µg/g
[2]; single subcutaneous, approximately 10 mg/kg
  injection site concentration of QFB: 10,480 ug/g
[3]; 1 hour
  serum concentration at 1 hour: 30.4 µg/mL
[3]; 48 hours
  serum concentration after 48 hours: 1.0 µg/mL
[4]
  adverse reaction at injection site: dramatic swelling, discoloration, internal and external lesions and even necrosis
